Experiments:
[1] = biological target: Sterol 14-alpha demethylase (Trypanosoma cruzi (strain CL Brener), UniProt Q7Z1V1); assay: GSK_TCAKS: pIC50 CYP51 from Trypanosoma cruzi.; assay type: functional
[2] = system: Trypanosoma cruzi; assay: GSK_TCAKS: pIC50 Trypanosoma cruzi Imaging: Amastigotes/Cell. […] Cells were then washed once with PBS before infection. T. cruzi trypomastigotes, collected at days 5 to 8 after infection from LLC-MK2 parasite infected cultures, were allowed to swim out for 4h at 37C from a centrifuged pellet (2,500 rpm/10 min/room temperature). Trypomastigotes were then collected and counted in a CASY Cell Counter. Trypomastigotes, in supplemented DMEM, were added to H9c2 cultures in a multiplicity of infection of 1 and incubated for 18 h. Cells were washed once with PBS before incubation of the infected H9c2 monolayer with trypsin (Life-Technologies) to detach cells from the flask. Cells were counted in a CASY Cell Counter using a 150 um capillary and their density set at 5 * 10^4 cells per mL in supplemented assay DMEM. Infected H9c2 were dispensed into 384-well poly-lysine coated assay plates at 50uL per well using a Multidrop Combi dispenser. After seeding them, the plates were incubated at 37C, 5% CO2 for 72h. Cultures were then fixed and stained by addition of 50 uL of a solution containing 8% formaldehyde and 4 uM DRAQ5 DNA dye (BioStatus, UK) per well. […] Five images were collected per well for reliable statistical analysis. Automated image analysis was performed with a script developed on Acapella High Content Imaging and Analysis Software (PerkinElmer). Output: number of amastigotes per cell as infection level measurement.; assay type: functional, organism-based, Rattus norvegicus; details: H9c2, 4 h
[3] = system: Leishmania donovani; assay: GSK_TCAKS: pIC50 Leishmania donovani Imaging: Infected Macrophages. Assay plates (384-well) were prepared by adding 250nL of compound to each well. For single shot assay, the final compound concentration was 5 uM. […] Automated image analysis was performed with a script developed on Acapella High Content Imaging and Analysis Software (PerkinElmer). Output: Percent of infected macrophage cells were reported for each well.; assay type: functional, organism-based, Homo sapiens; details: THP-1
[4] = system: NIH3T3; assay: GSK_TCAKS: pIC50 NIH 3T3 cell line viability assay using luminiscence. Tissue culture surface treated assay plates (1536-well) were used. […] The 100% cells survival control was determined exposing the host-cells to a 0.5% DMSO concentration, whereas the 100% toxicity control was achieved by seeding the cells in presence of Amphotericin B at 50uM. Plates were incubated for four days at 37C, 5% CO2. The assay readout was developed by addition of 5uL of CellTiter-Glo Reagent following the manufacturer's instructions. Luminiscence was measured using a ViewLux.; assay type: functional, cell-based; details: Mus musculus, NIH3T3, 96 h
[5] = system: Leishmania donovani; assay: GSK_TCAKS: pIC50 Leishmania donovani viability assay using fluorescence intensity. Assay plates (1536-well) were prepared by adding 30nL per well of compound. For single shot assay, the final compound concentration was 5uM. […] Briefly, eGFP LdBOB axenic amastigotes were harvested, fixed and counted in a CASY cell counter (Roche-Applied Science). A final concentration of 1.5 * 10^5 cells per well were prepared in amastigote media containing 500 U/mL penicillin/streptomycin (Invitrogen) and 6uL was dispensed to each experimental well using a Multidrop Combi dispenser (Thermo Scientific). 6uL of assay media was dispensed to control columns used as reference for 100% compound response. Following incubation for 72 h at 37C, 5% CO2, 2 uL of resazurin was added to each well at a final concentration of 0.5 mM in phosphate buffered saline (PBS) with IGEPAL (Sigma-Aldrich), 0.05% (v/v).; assay type: functional, organism-based
[6] = GSK_TCAKS: pIC50 HepG2 human cell line viability assay using luminiscence. […] Seeding density was checked to ensure that new mono-layers were not more than 50% confluent at the time of harvesting. Cell suspension was added to 500 mL of the same medium at a final density of 1.2 * 10^5 cells/mL. This cell suspension was dispensed (25 uL, 3000 cells per well) into 384-well clear-bottom plates using a Multidrop Combi dispenser. Prior to addition of the cell suspension, the screening compounds (250 nL) were pre-dispensed into the plates with an Echo liquid handler. Plates were incubated for 48 h at 37C, 5% CO2. After incubation, plates equilibrated at room temperature for 30 min before proceeding to develop the luminescent signal. The signal developer, CellTiter-Glo Reagent, was allowed to equilibrate at room temperature for 30 min and added to the plates (25uL per well) using a Multidrop Combi dispenser. Plates were left for 10 min at room temperature for stabilization and then read using a ViewLux.; assay type: toxicity, cell-based
[7] = system: Trypanosoma cruzi; assay: GSK_TCAKS: pIC50 Trypanosoma cruzi viability assay using beta-GAL activity. This assay was run at single shot at 5uM compound concentration per well. The biological reagents consisted of NIH-3T3 host cells and trypomastigotes parasitic cells; both cell types were set to a 3.3 * 10^5 cells/mL dilution in assay DMEM by means of a CASY cell counter device using a 60um capillary. 6 uL of the mixture were dispensed per well (about 1 * 10^3 host-cells and 1 * 10^3 parasites) with a Multidrop Combi dispenser. […] In all wells, the percentage of DMSO never exceeded 0.5%. Plates incubated for four days at 37C, 5% CO2. The substrate used for the assay fluorescence intensity (FLINT) readout was resorufin-beta-D-galactopiranoside (Sigma-Aldrich) at 5uM per well. It was diluted in PBS supplemented with the soft detergent Igepal (Fluka).; assay type: functional, organism-based, Mus musculus; details: Tulahuen, NIH3T3
[8] = system: Leishmania donovani; assay: GSK_TCAKS: pIC50 Leishmania donovani Imaging: THP-1 Host Macrophages. Assay plates (384-well) were prepared by adding 250nL of compound to each well. For single shot assay, the final compound concentration was 5 uM. […] Automated image analysis was performed with a script developed on Acapella High Content Imaging and Analysis Software (PerkinElmer). Output: THP-1 cell count were reported for each well.; assay type: functional, organism-based, Homo sapiens
[9] = system: Leishmania donovani; assay: GSK_TCAKS: pIC50 Leishmania donovani Imaging: Amastigotes/Macrophages. Assay plates (384-well) were prepared by adding 250nL of compound to each well. For single shot assay, the final compound concentration was 5 uM. […] Automated image analysis was performed with a script developed on Acapella High Content Imaging and Analysis Software (PerkinElmer). Output: Average number of amastigotes per macrophage cell were reported for each well.; assay type: functional, organism-based, Homo sapiens; details: THP-1
[10] = system: Trypanosoma cruzi; assay: (§1) GSK_TCAKS: pIC50 Trypanosoma cruzi Imaging: Infected Cells. […] Cells were then washed once with PBS before infection. T. cruzi trypomastigotes, collected at days 5 to 8 after infection from LLC-MK2 parasite infected cultures, were allowed to swim out for 4h at 37C from a centrifuged pellet (2,500 rpm/10 min/room temperature). Trypomastigotes were then collected and counted in a CASY Cell Counter. Trypomastigotes, in supplemented DMEM, were added to H9c2 cultures in a multiplicity of infection of 1 and incubated for 18 h. Cells were washed once with PBS before incubation of the infected H9c2 monolayer with trypsin (Life-Technologies) to detach cells from the flask. Cells were counted in a CASY Cell Counter using a 150 um capillary and their density set at 5 * 10^4 cells per mL in supplemented assay DMEM. Infected H9c2 were dispensed into 384-well poly-lysine coated assay plates at 50uL per well using a Multidrop Combi dispenser. After seeding them, the plates were incubated at 37C, 5% CO2 for 72h. Cultures were then fixed and stained by addition of 50 uL of a solution containing 8% formaldehyde and 4 uM DRAQ5 DNA dye (BioStatus, UK) per well. […] Five images were collected per well for reliable statistical analysis. Automated image analysis was performed with a script developed on Acapella High Content Imaging and Analysis Software (PerkinElmer). Output: percentage of infected cells per well as a second infection marker.; assay type: functional, organism-based, Rattus norvegicus; details: H9c2, 4 h
[11] = system: Trypanosoma brucei brucei; assay: GSK_TCAKS: pIC50 Trypanosoma brucei viability assay using fluorescence intensity. Assay plates (1536-well) were prepared by dispensing 25nL of compound solution per well using an Echo acoustic dispenser (Labcyte).; assay type: functional, organism-based; details: Lister 427, 2 h
[12] = system: Trypanosoma cruzi; assay: as §1, with “H2C9” for “Trypanosoma cruzi”, “H9c2 Host Cardiomyocytes.” for “Infected Cells.”, “Number” for “percentage”, “H9c2 Host Cardiomyocytes nuclei to determine drug-related cytotoxicity.” for “infected cells per well as a second infection marker.”; assay type: functional, organism-based, Rattus norvegicus; details: H9c2, 4 h
[13] = system: Trypanosoma brucei brucei; assay: GSK_TCAKS: pIC50 Trypanosoma brucei viability assay using luminiscence. Assay plates (1536-well) were prepared. T. brucei cultures were harvested and counted in a CASY cell counter. A parasite suspension was prepared at a final concentration of 5 * 10^4 cells/mL in complete HMI9 medium and 6uL was dispensed to all wells containing compounds using a Multidrop Combi dispenser. 6uL of HMI9 media with 0.4% DMSO were dispensed to control columns. Plates were incubated for 24 h at 37C, 5% CO2 then tempered for 10 min at room temperature. ATP content was quantified by adding 4 uL of CellTiter-Glo Reagent (Promega) according to the manufacturer's instructions. Luminescence was measured using a ViewLux.; assay type: functional, organism-based; details: Lister 427, CASY

Sterol 14-alpha demethylase, sequence (Q7Z1V1 whole entry): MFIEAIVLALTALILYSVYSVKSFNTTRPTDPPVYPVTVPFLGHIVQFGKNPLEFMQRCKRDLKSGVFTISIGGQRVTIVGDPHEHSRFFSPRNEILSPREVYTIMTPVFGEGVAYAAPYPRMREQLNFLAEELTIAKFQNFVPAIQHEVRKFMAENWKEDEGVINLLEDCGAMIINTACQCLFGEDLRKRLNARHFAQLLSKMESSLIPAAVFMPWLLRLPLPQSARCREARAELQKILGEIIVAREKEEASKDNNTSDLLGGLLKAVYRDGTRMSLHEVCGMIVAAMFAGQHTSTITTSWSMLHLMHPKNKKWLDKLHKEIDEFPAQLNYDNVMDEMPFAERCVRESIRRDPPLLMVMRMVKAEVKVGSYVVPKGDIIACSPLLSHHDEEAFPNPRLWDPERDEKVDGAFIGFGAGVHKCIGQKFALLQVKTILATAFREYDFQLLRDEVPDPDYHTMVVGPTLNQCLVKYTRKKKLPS

Structure (SMILES) | IC50 [1] [µM] | IC50 [2] [µM] | IC50 [3] [µM] | IC50 [4] [µM] | IC50 [5] [µM] | IC50 at 48 h [6] [µM] | IC50 [7] [µM] | IC50 [8] [µM] | IC50 [9] [µM] | IC50 [10] [µM] | IC50 [11] [µM] | IC50 [12] [µM] | IC50 [13] [µM]
COc1cccc(-c2cc(C(F)(F)F)nc(-n3ccc([N+](=O)[O-])n3)n2)c1 | > 100 | 0.2 | > 50.1 | > 50.1 | > 50.1 | > 100 | 0.398 | > 50.1 | > 50.1 | 0.398 | 31.6 | > 50.1 | > 39.8
CN(C)Cc1ccc(-c2ccc(S(=O)(=O)NCC3CCCO3)c(F)c2)cc1 (stereo not given) | 39.8 | 2 | > 63.1 | 15.8 | > 63.1 | > 126 | 1.26 | > 63.1 | > 63.1 | 5.01 | 25.1 | > 63.1 | 39.8
Clc1ccc(C(CC2CCCCO2)Cn2cncn2)c(Cl)c1 (stereo not given) | 0.251 | 1 | > 50.1 | 39.8 | 25.1 | > 100 | 0.398 | > 50.1 | > 50.1 | 1.26 | > 39.8 | > 50.1 | > 39.8
COc1ccc(CN(C)Cc2ccncc2)cc1-c1ccc(S(=O)(=O)NC2CCC2)s1 | 0.0794 | 0.501 | > 50.1 | 25.1 | 39.8 | > 100 | 0.501 | 20 | 15.8 | 0.631 | > 39.8 | 10 | 20
Cc1nc2[nH]c(C)c(Cc3ccc(C(C)C)cc3)c(=O)n2n1 | > 100 | 0.251 | 31.6 | > 50.1 | 1.26 | > 100 | 0.501 | > 50.1 | 15.8 | 0.794 | > 39.8 | > 50.1 | > 39.8
Cn1nc([N+](=O)[O-])nc1N1CCCCC1 | > 100 | 1 | > 50.1 | > 50.1 | > 50.1 | > 100 | 1.26 | > 50.1 | > 50.1 | 12.6 | > 39.8 | > 50.1 | > 39.8
COc1cc(C(C)C)c(S(C)(=O)=O)cc1C(=O)N1CCN(c2ccccc2Cl)CC1 | > 100 | 2 | 15.8 | > 50.1 | 5.01 | > 100 | 1.58 | 15.8 | 12.6 | 2.51 | 25.1 | 20 | 31.6
O=C(NCc1ccc(-n2cccc2)cc1)c1nc(Cn2ccc([N+](=O)[O-])n2)no1 | > 100 | 1.26 | > 50.1 | 50.1 | > 50.1 | > 100 | 2.51 | > 50.1 | > 50.1 | 2.51 | > 39.8 | > 50.1 | > 39.8
COc1ccc(NS(=O)(=O)c2cccc(NC(=O)c3cc(F)cc(F)c3)c2)cc1 | > 100 | 0.501 | > 50.1 | 25.1 | 3.16 | 31.6 | 0.794 | > 50.1 | 20 | 0.501 | 0.631 | > 50.1 | 1
Cc1cc(N(C)C)nc(Nc2ccccc2C)n1 | > 100 | 0.501 | 31.6 | 39.8 | > 50.1 | 63.1 | 1.58 | 39.8 | 15.8 | 0.794 | 31.6 | > 50.1 | > 39.8

From ChEMBL document CHEMBL3430912, “GSK Tres Cantos Anti-Kinetoplastid Screening (TCAKS) Data”
